From US6555545B2, “Adenosine A2A receptor antagonists for treating and preventing hepatic fibrosis, cirrhosis and fatty liver” (New York University, priority 2000, dated 2003)
pEC50: −log10 of the molar value. Entries after “also recorded” stand apart in the source; their conditions may differ.

Experiments:
[1] = system: human hepatic stellate cells (LX-1); test: Collagen production by immortalized human hepatic stellate cells; format: cell-based
Protocol: Since A2A receptor selectivity of CGS-21680 decreases with increasing concentration, and recruitment of A2B receptor activity is observed with CGS-21680 concentrations above 100 nM, agonistic effects in A2B receptors by high-dose CGS-21680 is likely to be responsible for the decrease in collagen production. This is consistent with Dubey's observations on cardiac fibroblasts that adenosine A2B receptor activation decreases collagen synthesis, Dubey et al., Hypertension 1998; 31(4):943-8. Alternatively, CGS-21680-induced changes in collagen production may be the result of alterations in the expression of collagenase/metalloproteinases (MMP) or their inhibitors, tissue inhibitors of metalloproteinases, TIMP. Adenosine, acting through one of its receptors, most likely the A2B receptor, has been noted to alter metalloproteinase expression (Boyle et al., Arthritis Rheum 1996:39(6):923-30.

[2] = system: rat hepatic stellate cells (rHSC); test: Collagen production by immortalized rat hepatic stellate cells (14C-proline pulse, phosphorimager); format: cell-based; settings: for collagen production, % of control: n=4; for effect of antagonist on CGS-21680-mediated increase in collagen production (in words): rHSC, CSC 10 micro-M, preincubation four hours
Protocol: To determine whether an increase in adenosine release would promote collagen production, immortalized rat hepatic stellate cells (rHSC, gift from Dr. S. L. Friedman) were incubated with agonists and antagonists at various adenosine receptors, after which collagen production was quantitated. Rat hepatic stellate cells were treated with […] at various concentrations with or without the addition of 10 micro-M adenosine A2A receptor antagonist CSC following pulsing with ^14C-proline. The collagen was extracted by ethanol precipitation and quantified following phosphorimager exposure.
The cAMP/protein kinase A pathway is known to mediate adenosine A2A receptor signal transduction. The effect of protein kinase A inhibition was studied on CGS-21680-mediated collagen production in rHSC. Rat HSC were treated with 10 micromolar CGS-21680 for four hours at 37° C., 5% CO2, with or without the addition of 10 micromolar KT-5720, a protein kinase A inhibitor, and collagen production was extracted by ethanol precipitation and quantified following phosphoimager exposure.

HepG2 cells = test: Adenosine release from HepG2 cells, quantitated by HPLC; settings: for effect on adenosine release (in words): pharmacologically relevant concentrations, ethanol up to 80 mg/dl

CCNC(=O)[C@H]1O[C@@H](n2cnc3c(N)nc(NCCc4ccc(CCC(=O)O)cc4)nc32)[C@H](O)[C@@H]1O [CGS-21680] was tested, and the “effect on collagen production (in words)” value ([1]; CGS-21680 concentrations above 100 nM) was “collagen production by LX-1 decreases”, the “effect on collagen production (in words)” value ([1]; CGS-21680 concentrations up to 100 nM, dose dependent) was “increased collagen production” and the “collagen production, % of control” value ([2]; 10 micromolar CGS-21680 alone, four hours) was 339±99 % of control. The “increase in collagen production over control” value ([2]; concentration of 10 mM as printed, n=6, p<0.001) was 3223±917%, the pEC50 ([2]; cultured rat stellate cell line, dose-dependent, read-out: EC50 for promotion of collagen synthesis and release) was roughly 6.52 and the “maximal promotion of collagen synthesis and release” value ([2]; cultured rat stellate cell line, p<0.004) was no more than 20 fold.

For CCO [ethanol], the “increase in adenosine release from control” value (HepG2 cells; ethanol 40 mg/dl, three hours) was “four-fold”, the adenosine release (HepG2 cells; ethanol 40 mg/dl, three hours, n=6, p<0.001 vs control 37±35 nM) was 206 ± 79 nM and the “toxicity to HepG2 cells” value (HepG2 cells; ethanol concentrations greater than 80 mg/dl) was “toxic to HepG2 cells”. The “effect on adenosine release (in words)” value (HepG2 cells) was “increased adenosine release; also recorded: promote adenosine release” and the “effect of ethanol on adenosine release from methotrexate-treated HepG2 cells” value (HepG2 cells; relevant concentrations of methotrexate, data not shown) was “further increased adenosine release”.

With CCCn1c(=O)[nH]c(=O)c2[nH]cnc21 [enprofylline] the “effect of antagonist on CGS-21680-mediated increase in collagen production (in words)” value [2] was “little effect; also recorded: minimal inhibitory effects”.

In the case of CCCn1c(=O)c2[nH]c(C3CCCC3)nc2n(CCC)c1=O [DPCPX, 8-cyclopentyldipropylxanthine], the “effect of antagonist on CGS-21680-mediated increase in collagen production (in words)” value [2] was “little effect; also recorded: minimal inhibitory effects”.

In the case of CN(Cc1cnc2nc(N)nc(N)c2n1)c1ccc(C(=O)N[C@@H](CCC(=O)O)C(=O)O)cc1 [methotrexate], the “increase in adenosine release vs control” value (HepG2 cells; methotrexate 10 nM, three hours) was “six-fold”, the adenosine release (HepG2 cells; methotrexate 10 nM, three hours, n=6, p<0.001 vs control 41±39 nM) was 242 ± 82 nM and the “effect on adenosine release (in words)” value (HepG2 cells) was “increased adenosine release; also recorded: promotes adenosine release”.

Cn1c(=O)c2c(nc(C=Cc3cccc(Cl)c3)n2C)n(C)c1=O [CSC, 8-(3-chlorostyryl)-caffeine] was tested, and the “effect of antagonist on CGS-21680-induced collagen production (in words)” value [1] was “blocked by CSC” and the “effect of antagonist on CGS-21680-mediated increase in collagen production (in words)” value [2] was “almost completely blocks; also recorded: almost completely abrogated”.

With CCCCCCOC(=O)[C@]1(O)C[C@@H]2O[C@@]1(C)n1c3ccccc3c3c4c(c5c6ccccc6n2c5c31)C(=O)NC4 [KT-5720] the “collagen production, % of control” value ([2]; 10 micromolar CGS-21680 plus 10 micromolar KT-5720, four hours) was 181±69 % of control and the “suppression of the CGS-21680-mediated increase in collagen production” value ([2]; 10 micromolar KT-5720 with 10 micromolar CGS-21680, four hours, n=4, p<0.013) was 47%.
